Data from patent US12319655B2, “RAF kinase inhibitors and methods of use thereof” (Deciphera Pharmaceuticals, LLC, priority 2021, dated 2025).

What was measured:
A375 cells = experiment: A375 Cell Proliferation Assay (1); assay type: cell-based; settings: Homo sapiens, A-375
Procedure, shortened: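 Resazurin fluorescence (excitation 540 nm, emission 600 nm, after a further 5-6 h) gave IC50s from triplicate compound dilution series.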

[1] = target: A-Raf kinase (SEQ. ID No: 1) (Homo sapiens (Human), UniProt P10398, Y301D/Y302D); experiment: Biochemical Assay for A-Raf (1); settings: Table J, assay version (1); read-out: ARAF (1) IC50
Procedure, shortened: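 IC50 values were derived by four-parameter sigmoidal fitting of percent inhibition, calculated from reaction rates over the 4–5 h window. Absorbance at 340 nm was tracked for 6 h at 30 °C via coupled PK/LDH NADH depletion. Conditions: 1 mM ATP, 30.1 nM MEK substrate, 5.55 nM A-Raf (Y301D/Y302D), Tris pH 7.5, 1% DMSO.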

[2] = target: C-Raf kinase (SEQ. ID NO: 3) (Homo sapiens (Human), UniProt P04049, Y340D/Y341D); experiment: Biochemical Assay for C-Raf (1); settings: Table J, assay version (1); read-out: CRAF (1) IC50
Procedure, shortened: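 IC50 values come from a four-parameter fit of percent inhibition, using the reaction rate over 4–5 h of a 6 h continuous 340 nm read at 30 °C. The enzyme mix was C-Raf 0.43 nM, MEK substrate 30.1 nM and ATP 1 mM, in a PK/LDH NADH-coupled format in Tris pH 7.5 with 1% DMSO.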

[3] = target: B-Raf kinase (SEQ. ID NO: 2) (Homo sapiens (Human), UniProt P15056); experiment: Biochemical Assay for B-Raf (1); settings: Table J, assay version (1); read-out: BRAF (1) IC50
Procedure, shortened: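 IC50 derived by four-parameter sigmoidal fit of percent inhibition, normalised to uninhibited and reference-inhibitor controls, using reaction rates over 4–5 h. Coupled spectrophotometric readout (NADH loss at 340 nm, 6 h, 30° C.); 1 mM ATP, 30.1 nM MEK, 0.13 nM B-Raf, pH 7.5 Tris buffer, 1% DMSO.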

Chain of B-Raf kinase (SEQ. ID NO: 2) (P15056 416-766): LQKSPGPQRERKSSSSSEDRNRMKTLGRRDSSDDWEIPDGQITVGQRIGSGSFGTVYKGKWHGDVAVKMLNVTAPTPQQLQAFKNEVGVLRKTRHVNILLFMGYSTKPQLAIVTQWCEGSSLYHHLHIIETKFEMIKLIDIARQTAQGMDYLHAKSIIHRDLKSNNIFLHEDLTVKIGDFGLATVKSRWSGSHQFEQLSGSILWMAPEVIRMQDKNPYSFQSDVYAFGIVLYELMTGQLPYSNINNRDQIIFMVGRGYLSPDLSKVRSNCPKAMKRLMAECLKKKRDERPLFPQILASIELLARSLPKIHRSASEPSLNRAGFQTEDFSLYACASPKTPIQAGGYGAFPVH
Chain of A-Raf kinase (SEQ. ID No: 1) (P10398 other isoform, or with tags, fused parts or gaps Y301D (already in the parent)/Y302D (already in the parent)): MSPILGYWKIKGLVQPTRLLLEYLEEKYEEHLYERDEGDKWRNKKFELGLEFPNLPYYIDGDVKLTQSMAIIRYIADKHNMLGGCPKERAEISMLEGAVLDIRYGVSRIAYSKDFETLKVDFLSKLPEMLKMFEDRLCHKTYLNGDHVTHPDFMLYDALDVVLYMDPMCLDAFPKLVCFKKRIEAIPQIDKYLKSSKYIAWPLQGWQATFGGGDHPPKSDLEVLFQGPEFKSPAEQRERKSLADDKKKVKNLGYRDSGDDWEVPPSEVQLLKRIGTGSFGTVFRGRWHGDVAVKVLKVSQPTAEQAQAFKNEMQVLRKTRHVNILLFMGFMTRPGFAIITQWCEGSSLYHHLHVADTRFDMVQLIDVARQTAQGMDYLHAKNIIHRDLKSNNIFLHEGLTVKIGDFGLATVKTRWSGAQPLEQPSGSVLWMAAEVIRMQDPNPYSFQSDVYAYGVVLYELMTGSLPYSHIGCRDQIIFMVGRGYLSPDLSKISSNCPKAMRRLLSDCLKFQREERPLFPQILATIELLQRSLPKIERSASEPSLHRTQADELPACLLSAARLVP
Chain of C-Raf kinase (SEQ. ID NO: 3) (P04049 307-648 Y340D/Y341D): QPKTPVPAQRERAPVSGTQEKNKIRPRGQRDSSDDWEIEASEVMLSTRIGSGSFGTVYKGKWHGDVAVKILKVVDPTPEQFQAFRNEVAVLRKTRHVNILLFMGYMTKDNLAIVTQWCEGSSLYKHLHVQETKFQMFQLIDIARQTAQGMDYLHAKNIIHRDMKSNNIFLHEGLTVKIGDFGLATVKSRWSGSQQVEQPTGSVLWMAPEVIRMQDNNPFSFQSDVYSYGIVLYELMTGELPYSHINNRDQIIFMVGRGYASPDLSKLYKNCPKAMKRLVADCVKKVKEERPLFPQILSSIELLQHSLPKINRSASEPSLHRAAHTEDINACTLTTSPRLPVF

| Structure (SMILES) | IC50 (A375 cells) [nM] | IC50 [1] [nM] | IC50 [2] [nM] | IC50 [3] [nM] |
| --- | --- | --- | --- | --- |
| CC(=O)Nc1cc(-c2cc(-c3cc(NC(=O)c4ccnc(C(F)(F)F)c4)c(F)cc3C)cc(C)n2)ccn1 [Example 4] | 100 to 500 | 1000 to 10000 | ≤ 100 | ≤ 100 |
| CC(=O)Nc1cc(-c2cc(-c3cc(NC(=O)c4ccnc(C(F)(F)F)c4)ccc3C)cc(C)n2)ccn1 [Example 5] | 100 to 500 | 1000 to 10000 | ≤ 100 | ≤ 100 |
| CC(=O)Nc1cc(-c2cc(-c3cc(NC(=O)c4ccnc(C(F)(F)F)c4)ccc3C)ccn2)ccn1 [Example 6] | ≤ 100 | 100 to 500 | ≤ 100 | ≤ 100 |
| CCOc1cc(-c2cc(NC(=O)c3ccnc(C(F)(F)F)c3)ccc2C)cc(-c2ccnc(NC(C)=O)c2)n1 [Example 8] | ≤ 100 | 1000 to 10000 | ≤ 100 | ≤ 100 |
| CC(=O)Nc1cc(-c2cc(-c3cc(NC(=O)c4ccnc(C(F)(F)F)c4)c(F)cc3C)cc(OC(C)C)n2)ccn1 [Example 10] | ≤ 100 | 1000 to 10000 | 100 to 500 | 100 to 500 |
| CC(=O)Nc1cc(-c2cc(-c3cc(NC(=O)c4ccnc(C(F)(F)F)c4)ccc3C)cc(=O)n2C)ccn1 [Example 11] | 1000 to 10000 | 1000 to 10000 | ≤ 100 | 100 to 500 |
| Cc1ncc(NC(=O)c2ccnc(C(F)(F)F)c2)cc1-c1cccc(-c2ccnc(N)c2)c1 [Example 94] | 1000 to 10000 | 1000 to 10000 | ≤ 100 | 100 to 500 |
| Cc1ncc(NC(=O)c2cccc(C(F)(F)F)c2)cc1-c1cccc(-c2ccnc(NC(=O)CC#N)c2)c1 [Example 97] | 100 to 500 | 500 to 1000 | ≤ 100 | ≤ 100 |
| CC(=O)Nc1cc(-c2cc(-c3cc(NC(=O)c4ccnc(C(F)(F)F)c4)ccc3C)cn(CCO)c2=O)ccn1 [Example 102] | 1000 to 10000 | 1000 to 10000 | 100 to 500 | 100 to 500 |
| CC(=O)Nc1cc(-c2ccnc(-c3cc(NC(=O)c4ccnc(C(C)(C)C#N)c4)ccc3C)n2)ccn1 [Example 103] | ≤ 100 | 500 to 1000 | ≤ 100 | ≤ 100 |
| CNC(=O)c1cc(-c2cccc(-c3cc(NC(=O)c4ccnc(C(F)(F)F)c4)ccc3C)c2)ncn1 [Example 106] | 500 to 1000 | 1000 to 10000 | ≤ 100 | 100 to 500 |
| Cc1ccc(NC(=O)c2ccnc(C(C)(C)C#N)c2)cc1-c1cccc(-c2ncnc3c2CC(=O)N3)c1 [Example 109] | 100 to 500 | 1000 to 10000 | ≤ 100 | ≤ 100 |
| Cc1ccc(NC(=O)c2ccnc(C(C)(C)C#N)c2)cc1-c1cncc(-c2ccnc(NC(=O)C3CC3)c2)n1 [Example 112] | ≤ 100 | 500 to 1000 | ≤ 100 | ≤ 100 |
| COc1cc(C(=O)Nc2ccc(C)c(-c3cncc(-c4ccnc(NC(C)=O)c4)n3)c2)ccc1F [Example 120] | 1000 to 10000 | 1000 to 10000 | ≤ 100 | ≤ 100 |
| Cc1ccc(NC(=O)c2ccnc(C(F)(F)F)c2)cc1-c1ccnc(-c2ccnc(N)c2)n1 [Example 122] | 1000 to 10000 | 1000 to 10000 | ≤ 100 | ≤ 100 |
| COCC(=O)Nc1cc(-c2cccc(-c3cc(NC(=O)c4ccnc(C(F)(F)F)c4)cnc3C)n2)ccn1 [Example 130] | 1000 to 10000 | 1000 to 10000 | ≤ 100 | ≤ 100 |
| CC(=O)Nc1nccc(-c2cccc(-c3cc(NC(=O)c4ccnc(C(F)(F)F)c4)ccc3C)c2)c1C#N [Example 132] | 500 to 1000 | 1000 to 10000 | ≤ 100 | 100 to 500 |

More lines, now with the values ahead:

| IC50 (A375 cells) [nM] | IC50 [1] [nM] | IC50 [2] [nM] | IC50 [3] [nM] | Structure (SMILES) |
| --- | --- | --- | --- | --- |
| 500 to 1000 | 1000 to 10000 | ≤ 100 | ≤ 100 | Cc1cc(F)c(NC(=O)c2ccnc(C(F)(F)F)c2)cc1-c1ccnc(-c2ccnc(NC(=O)CN(C)C)c2)c1 [Example 7] |
| 500 to 1000 | 100 to 500 | ≤ 100 | ≤ 100 | Cc1ccc(NC(=O)c2ccnc(C(F)(F)F)c2)cc1-c1cncc(-c2ccnc(NC(=O)CC#N)c2)n1 [Example 98] |
| 500 to 1000 | 1000 to 10000 | ≤ 100 | ≤ 100 | COCC(=O)Nc1cc(-c2cncc(-c3cc(NC(=O)c4ccnc(C(F)(F)F)c4)ccc3C)n2)ccn1 [Example 99] |
| 100 to 500 | 1000 to 10000 | ≤ 100 | ≤ 100 | Cc1ccc(NC(=O)c2ccnc(C(F)(F)F)c2)cc1-c1cncc(-c2ccnc(NC(=O)CN(C)C)c2)n1 [Example 100] |
| 500 to 1000 | 1000 to 10000 | ≤ 100 | ≤ 100 | Cc1ccc(NC(=O)c2ccnc(C(C)(C)C#N)c2)cc1-c1ccnc(-c2ccnc3c2CC(=O)N3)n1 [Example 101] |
| ≤ 100 | 1000 to 10000 | ≤ 100 | ≤ 100 | Cc1cc(F)c(NC(=O)c2ccnc(C(C)(C)C#N)c2)cc1-c1ccnc(-c2ccnc(NC=O)c2)c1 [Example 104] |
| 1000 to 10000 | 1000 to 10000 | ≤ 100 | 100 to 500 | Cc1ncc(NC(=O)c2ccnc(C(C)(C)C#N)c2)cc1-c1cccc(-c2ccnc3c2CC(=O)N3)c1 [Example 105] |
| 100 to 500 | 500 to 1000 | ≤ 100 | ≤ 100 | CC(=O)Nc1cc(-c2nccc(-c3cc(NC(=O)c4ccnc(C(F)(F)F)c4)c(F)cc3C)n2)ccn1 [Example 107] |
| ≤ 100 | 1000 to 10000 | ≤ 100 | ≤ 100 | Cc1ccc(NC(=O)c2cccc(C(C)(C)C#N)c2)cc1-c1cc(OCCO)nc(-c2ccnc3c2CC(=O)N3)c1 [Example 108] |
| 1000 to 10000 | 1000 to 10000 | 100 to 500 | 100 to 500 | Cc1ncc(NC(=O)c2ccnc(C(C)(C)C#N)c2)cc1-c1cccc(-c2ncnc3c2CC(=O)N3)c1 [Example 110] |
| 1000 to 10000 | 1000 to 10000 | 100 to 500 | 500 to 1000 | Cc1ncc(NC(=O)c2ccnc(C(C)(C)C#N)c2)cc1-c1cccc(-c2ccnc3[nH]cnc23)c1 [Example 111] |
| 100 to 500 | 1000 to 10000 | ≤ 100 | 100 to 500 | CC(=O)Nc1cc(-c2cc(-c3cc(NC(=O)c4ccnc(C(C)(C)C#N)c4)ccc3C)cn(C)c2=O)ccn1 [Example 113] |
| ≤ 100 | 1000 to 10000 | ≤ 100 | ≤ 100 | CC(=O)Nc1cc(-c2cccc(-c3cc(NC(=O)c4ccnc(C(F)(F)F)c4)c(F)cc3C)c2)ncn1 [Example 114] |
| 100 to 500 | 1000 to 10000 | ≤ 100 | ≤ 100 | Cc1ccc(NC(=O)c2ccnc(C(F)F)c2)cc1-c1cncc(-c2ccnc(NC(=O)C3CC3)c2)n1 [Example 117] |
| ≤ 100 | 500 to 1000 | ≤ 100 | ≤ 100 | CC(=O)Nc1cc(-c2nccc(-c3cc(NC(=O)c4ccnc(C(C)(C)C#N)c4)ccc3C)n2)ccn1 [Example 118] |
| 100 to 500 | 1000 to 10000 | ≤ 100 | ≤ 100 | CC(=O)Nc1cc(-c2cncc(-c3cc(NC(=O)c4ccc(Cl)c(C(F)(F)F)c4)ccc3C)n2)ccn1 [Example 121] |
| 100 to 500 | 1000 to 10000 | ≤ 100 | ≤ 100 | Cc1ccc(NC(=O)c2ccnc(C(F)(F)F)c2)cc1-c1cncc(-c2ccnc(NC=O)c2)n1 [Example 123] |
| ≤ 100 | 1000 to 10000 | ≤ 100 | ≤ 100 | CC(=O)Nc1cc(-c2cncc(-c3cc(NC(=O)c4cc(C(F)(F)F)ccn4)ccc3C)n2)ccn1 [Example 124] |
| ≤ 100 | 1000 to 10000 | ≤ 100 | ≤ 100 | CC(=O)Nc1cc(-c2cncc(-c3cc(NC(=O)c4cccc(C(C)(C)C#N)c4)ccc3C)n2)ccn1 [Example 125] |
| ≤ 100 | 1000 to 10000 | ≤ 100 | ≤ 100 | CNC(=O)c1cc(-c2cc(-c3cc(NC(=O)c4cccc(C(C)(C)C#N)c4)ccc3C)ccn2)ccn1 [Example 127] |
| 500 to 1000 | 1000 to 10000 | ≤ 100 | ≤ 100 | Cc1ncc(NC(=O)c2ccnc(C(C)(C)C#N)c2)cc1-c1cccc(-c2ncnc3[nH]ncc23)c1 [Example 129] |
| 1000 to 10000 | 1000 to 10000 | ≤ 100 | ≤ 100 | Cc1ncc(NC(=O)c2ccnc(C3CC3)c2)cc1-c1cccc(-c2ncnc3[nH]ncc23)c1 [Example 131] |
| 1000 to 10000 | 1000 to 10000 | 100 to 500 | 100 to 500 | Cc1ccc(NC(=O)c2ccnc(C(C)(C)C#N)c2)cc1-c1cccc(-c2ccnc3[nH]ccc23)c1 [Example 133] |
